pIC50: −log10 of the molar value.
Legend:
[1] = organism: Homo sapiens; test: Selectivity index, ratio of IC50 for human recombinant MAOA to IC50 for human recombinant MAOB
[2] = target: T1, Amine oxidase [flavin-containing] B (Homo sapiens, UniProt P27338); test: Inhibition of human recombinant MAOB assessed as conversion of kynuramine to 4-hydroxyquinoline preincubated for 15 mins by fluorimetric assay
T1 sequence (P27338 whole entry): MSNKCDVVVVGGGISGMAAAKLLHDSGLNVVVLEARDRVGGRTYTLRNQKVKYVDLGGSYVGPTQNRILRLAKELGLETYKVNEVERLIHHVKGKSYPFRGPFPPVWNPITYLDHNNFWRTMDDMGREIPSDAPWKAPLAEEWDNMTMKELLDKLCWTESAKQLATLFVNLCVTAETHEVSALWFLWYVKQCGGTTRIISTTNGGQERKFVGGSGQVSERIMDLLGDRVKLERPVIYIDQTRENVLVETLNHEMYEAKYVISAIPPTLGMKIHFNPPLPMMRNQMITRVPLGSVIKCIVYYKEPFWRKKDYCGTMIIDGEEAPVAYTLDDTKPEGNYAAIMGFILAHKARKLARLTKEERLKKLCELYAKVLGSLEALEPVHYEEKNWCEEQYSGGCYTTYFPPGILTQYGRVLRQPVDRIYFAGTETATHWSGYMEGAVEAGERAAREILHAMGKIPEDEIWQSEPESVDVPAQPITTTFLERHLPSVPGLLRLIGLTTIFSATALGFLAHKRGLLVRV

[3] = target: T2, Amine oxidase [flavin-containing] A (Homo sapiens, UniProt P21397); test: Inhibition of human recombinant MAOA assessed as conversion of kynuramine to 4-hydroxyquinoline preincubated for 15 mins by fluorimetric assay
T2 sequence (P21397 whole entry): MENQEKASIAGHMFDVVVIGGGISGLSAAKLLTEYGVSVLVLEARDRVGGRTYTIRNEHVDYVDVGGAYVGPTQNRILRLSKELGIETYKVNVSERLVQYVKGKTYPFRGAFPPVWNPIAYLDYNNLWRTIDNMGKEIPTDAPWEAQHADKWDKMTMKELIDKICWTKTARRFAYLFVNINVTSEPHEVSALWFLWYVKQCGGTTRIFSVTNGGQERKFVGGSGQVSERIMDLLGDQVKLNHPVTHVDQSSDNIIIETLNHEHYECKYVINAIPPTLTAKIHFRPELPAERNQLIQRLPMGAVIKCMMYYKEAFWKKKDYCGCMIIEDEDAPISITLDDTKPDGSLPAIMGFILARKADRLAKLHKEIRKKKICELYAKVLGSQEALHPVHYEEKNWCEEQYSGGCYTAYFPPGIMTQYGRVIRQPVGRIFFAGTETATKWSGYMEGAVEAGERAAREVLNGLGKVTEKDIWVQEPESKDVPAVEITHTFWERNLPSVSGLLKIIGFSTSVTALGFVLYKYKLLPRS

Structure (SMILES) | Ratio IC50 [1] | pIC50 [2] | pIC50 [3]
COc1cc(NC(C)CCCN)c2ncccc2c1 (stereo unspecified) [PRIMAQUINE] | 0.8 | 4.02 | –
COc1cc(NC(C)CCCN)c2nccc(C)c2c1Oc1ccc(F)c(F)c1 (stereo unspecified) | 6.22 | 5.44 | 4.64
COc1cc(NC(C)CCCN)c2nccc(C)c2c1Oc1cccc(F)c1 (stereo unspecified) | 0.3 | 4.97 | 5.49
COc1cc(NC(C)CCCN)c2nccc(C)c2c1Oc1ccc(F)cc1 (stereo unspecified) | 0.29 | 4.48 | 5.01
